Literature values in patent US7378418B2, “Azabicyclic heterocycles as cannabinoid receptor modulators” (Bristol-Myers Squibb Company, priority 2003, dated 2008).

What was measured:
[1] = system: human subjects; settings: 16 week trial period, published Phase IIb data
[2] = chronic administration for two weeks (Hildebrandt et al. 2003)

Cc1c(C(=O)NN2CCCCC2)nn(-c2ccc(Cl)cc2Cl)c1-c1ccc(Cl)cc1 [SR-141716]
body weight [1]: dose-dependently reduced body weight

Cc1c(C(=O)NN2CCCCC2)nn(-c2ccc(Cl)cc2Cl)c1-c1ccc(I)cc1 [AM-251]
body weight [2]: substantial body weight reduction
